Where two headings read alike, the source gives them in different places.
Columns and labels:
[1] = Sorafenib metabolism/clearance in subcutaneous tumor tissues, LC-MS/MS; assay type: in vivo, nude mice; conditions: nude, mouse, read-out: t1/2 values (converted)
Method: (§1) For HCC subcutaneous tumor tissue, HCC cells were first cultured for transfection after which the cells were inoculated subcutaneously into nude mice to form tumor tissue. […] The HCC tumor tissues were collected at each time point described previously with the addition of 72 and 96 h.
(§2) During the extraction of sorafenib samples from HCC tissue samples, the tissue samples were shredded to form tissue micro-blocks and then ground with liquid nitrogen. The samples ground with liquid nitrogen were mixed with PBS and then mixed with the organic solvent acetonitrile at a ratio of 1:1. The samples were then crushed and extracted for about 30 min using vortex shaking. After that, the samples were centrifuged at 12,000 rpm and at 4 °C for about 15 to 20 min. At this time, the sample was separated into cell debris and organic and water phases.
(§3) S transition pair was detected using LC–MS/MS: (1) the parent ion was 465 Da and (2) the product ion was 252 Da.
(§4) All statistical analyses in the presence work were performed using the GraphPad 8.0 (GraphPad Software Corporation, Armonk, NY, USA). […] For the survival analysis data, the survival curves were analyzed by the log-rank (Mantel–Cox) test to detect the P-value of the survival curve, the median survival time, and the 95% confidence interval (CI). For the co-relationship analysis, the data were analyzed by linear regression to determine the overall trend of a group of data points. […] If the slope was positive, the horizontal coordinate was positively related to the vertical coordinate, and if the slope was negative, the horizontal coordinate was negatively related to the vertical coordinate. For the multi-grouped data, the ordinary one-way analysis of variance (ANOVA) and multiple comparison methods were used. An ANOVA was used to examine whether any difference between groups could be detected. The multiple comparisons (t-test) was used to detect differences between pairs of data.

[2] = tested on: subcutaneous tumor tissue formed by MHCC97-L cells; assay: as above; assay type: in vivo, nude mice; conditions: MHCC97-L subcutaneous tumour tissues, control group (rifampicin experiment)
Method: as §1, §2, §3, §4

[3] = Sorafenib metabolism/clearance in LS180 cells; assay type: in vitro ADME; conditions: human, read-out: t1/2 values (converted)
LS180 cells = assay: MTT cell survival examination; assay type: cell-based; conditions: Homo sapiens
Method: The antitumor activity of antitumor drugs injuring HCC cells was examined by using MTT assay. After culturing the HCC cells, transfection experiments were performed, and the cells were then seeded in 96-well cell culture plates (about 8000 cells per well). […] After the cells were treated with the drug for about 48 h, a dose of […] tetrazolium (MTT) reagent was added, and cells with the MTT reagent were incubated for 5 to 6 h. After incubation with the MTT was complete, all liquid in the 96-well cell culture plate was discarded, and about 100 μl of DMSO was added to each well to dissolve the cell samples. During the process of lysing the cell samples, the cell culture plate was shaken for 15 minutes to completely lyse the cells. After the lysis step was complete, the cell culture plate was centrifuged at 12,000 rpm at 4 °C, and the supernatant was collected for evaluation.
as §4

[4] = Blood concentration assay of sorafenib, mice bearing MHCC97-H tumours; assay type: in vivo; conditions: nude, mouse, plasma, 2 mg/kg, 2 mg/kg oral
Method: Table notes: After knockdown of TPX2 in MHCC97-H cells, the cells were inoculated with nude mice to form subcutaneous tumour tissue (the volume of tumour tissue was approximately 1 g) and then given 2 mg/kg via oral administration. After knockdown TPX2 in MHCC97-H cells, the cells were inoculated into nude mice to form subcutaneous tumour tissue and then in situ liver tumour tissue was established. 2mg/kg via oral administration was given to nude mice. Thereafter, blood levels of sorafenib were measured.

advanced HCC patients = assay: Prognosis of advanced HCC patients who received sorafenib, by TPX2 mRNA expression; assay type: in vivo, human; conditions: advanced HCC patients on sorafenib
Method: The human-related experimental materials involved in this study consisted of mainly cDNA samples extracted from patient-derived HCC clinical specimens or the HCC cell lines. The cDNA samples were stored in a –80 °C refrigerator and stored in aliquots. […] Baseline information was detailed in our previous publications. The cell lines use in this study included various HCC cell lines (HepG2 [a HCC cell line], MHCC97-H [a highly aggressive HCC cell line], and MHCC97-L [a lowly aggressive HCC cell line]) and a PXR positive colorectal cancer line LS180. These cells were purchased from the National Infrastructure of Cell Resources of the Chinese Academy of Medical Sciences/China Union Medical College and descripted in our previous work.
All statistical analyses in the presence work were performed using the GraphPad 8.0 (GraphPad Software Corporation, Armonk, NY, USA). […] For the co-relationship analysis, the data were analyzed by linear regression to determine the overall trend of a group of data points. […] If the slope was positive, the horizontal coordinate was positively related to the vertical coordinate, and if the slope was negative, the horizontal coordinate was negatively related to the vertical coordinate. […] An ANOVA was used to examine whether any difference between groups could be detected. […]

[5] = tested on: HCC subcutaneous tumor tissues; assay: Sorafenib retention in HCC subcutaneous tumor tissues, LC-MS/MS; assay type: in vivo, nude mice; conditions: 72-h time point after intratumoral injection
Method: as §1, §2, §3

[6] = oral, Subcutaneous MHCC97-H Control tumour
[7] = oral, Subcutaneous MHCC97-H siTPX2 tumour
[8] = po, intrahepatic MHCC97-H Control tumour
[9] = po, intrahepatic MHCC97-H siTPX2 tumour

Structure (SMILES): CNC(=O)c1cc(Oc2ccc(NC(=O)Nc3ccc(Cl)c(C(F)(F)F)c3)cc2)ccn1 [sorafenib]
- half-life ([1]; subcutaneous tumor tissue formed by HepG2 cells, Control, median (95% CI)): 29.4 h
- half-life ([1]; subcutaneous tumor tissue formed by HepG2 cells, TPX2 overexpression, median (95% CI)): 18.5 h
- half-life ([1]; subcutaneous tumor tissue formed by HepG2 cells, siTPX2, median (95% CI)): 42.2 h
- half-life ([1]; subcutaneous tumor tissue formed by MHCC97-H cells, Control, median (95% CI)): 19.7 h
- half-life ([1]; subcutaneous tumor tissue formed by MHCC97-H cells, siTPX2, median (95% CI)): 27.5 h
- half-life ([1]; subcutaneous tumor tissue formed by MHCC97-L cells, MHCC97-L tumor tissues, Control, median (95% CI)): 28.3 h
- half-life ([1]; subcutaneous tumor tissue formed by MHCC97-L cells, MHCC97-L tumor tissues, TPX2 overexpression, median (95% CI)): 13.5 h
- half-life ([1]; subcutaneous tumor tissue formed by MHCC97-L cells, other: injected directly into the tumor tissue, MHCC97-L subcutaneous tumour tissues, TPX2 overexpression + rifampicin 5 mg/kg oral): 11.4 h
- half-life ([1]; subcutaneous tumor tissue formed by MHCC97-L cells, other: injected directly into the tumor tissue, MHCC97-L subcutaneous tumour tissues, TPX2 overexpression group (rifampicin experiment)): 14 h
- t1/2 values [2]: 29.70 [21.38–36.75]
- half-life at 1 μmol/L ([3]; TPX2 knockdown): 32.7 h
- half-life at 1 μmol/L ([3]; TPX2 overexpression): 12 h
- half-life at 1 μmol/L ([3]; control of TPX2 knockdown experiment): 21.8 h
- half-life at 1 μmol/L ([3]; control of TPX2 overexpression experiment): 21.3 h
- IC50 (LS180 cells; LS180, LS180, TPX2 knockdown): 250 nM
- IC50 (LS180 cells; LS180, LS180, TPX2 overexpression): 4300 nM
- IC50 (LS180 cells; LS180, LS180, control group): 910 nM
- concentration at 2 h [4, 6]: 23.3 ± 16.6 ng/mL
- concentration at 2 h [4, 7]: 33.2 ± 19.4 ng/mL
- concentration at 8 h [4, 6]: 152 ± 25.4 ng/mL
- concentration at 8 h [4, 7]: 170 ± 32.3 ng/mL
- concentration at 20 h [4, 6]: 123 ± 23.6 ng/mL
- concentration at 20 h [4, 7]: 142 ± 21.4 ng/mL
- concentration at 40 h [4, 6]: 63 ± 14.5 ng/mL
- concentration at 40 h [4, 7]: 77.5 ± 23.5 ng/mL
- concentration at 2 h [4, 8]: 22.5 ± 11.8 ng/mL
- concentration at 2 h [4, 9]: 24.3 ± 14.2 ng/mL
- concentration at 8 h [4, 8]: 146 ± 28.7 ng/mL
- concentration at 8 h [4, 9]: 152 ± 22.1 ng/mL
- concentration at 20 h [4, 8]: 120 ± 32 ng/mL
- concentration at 20 h [4, 9]: 127 ± 31.2 ng/mL
- concentration at 40 h [4, 8]: 46.8 ± 31.9 ng/mL
- concentration at 40 h [4, 9]: 57.8 ± 27.6 ng/mL
- TTP median value (advanced HCC patients; TPX2 mRNA High (n = 26)): 9.0 months
- OS median value (advanced HCC patients; TPX2 mRNA Low (n = 26)): 16.0 months
- metabolism and elimination in HCC tissues [5]: almost completely metabolized and eliminated
